The results in this text go back to patent US20100144755A1 (Glaxo Group Limited, priority 2006, published 2010).

Bounds are passed on as bounds.

The subject of data set [1] is influx of neutrophils to the lung in LPS-challenged rats. Kind of data set: Rat LPS neutrophilia model. Format: in vivo. The note with it: LPS aerosol, intratracheal dosing, in at least one of the range of conditions tested, significance p<0.05. A digest of the protocol:
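Compound given intratracheally (200 ul suspension or dry powder via microsprayer) to isoflurane-anesthetized rats 15 min–24 h before 15 min LPS aerosol (100 ug/ml). Lavage 4 h post-challenge; neutrophils from differential counts. % inhibition versus no-compound controls at a given concentration and pretreat time.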

The test system of data set [2] is TNF-stimulated IL8 production by human neutrophils. Kind of data set: TNF-stimulated IL-8 production from human neutrophils.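 Further: IL-8 in cell-free supernatant quantified by sandwich ELISA, inhibition calculated against a compound-free control.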 It counts as cell-based. The note with it: Neutrophil, TNF 100 ng/ml, about 20 hrs, bounds reflect the top concentration screened, for 202(c) and 120 a range over multiple runs with ends given as 'greater than'.
Procedure: TNF-Stimulated IL-8 Production from Human Neutrophils
The effect of test compounds on TNF-stimulated IL8 production by human neutrophils is measured as follows. Neutrophils are prepared from blood obtained from consenting donors, using standard methods. Blood is collected in heparinized syringes and layered over histopaque (30 ml/20 ml). Following centrifugation, the red cell pellet is resuspended in PBS and purified over a dextran gradient. […] Cells are added (0.5-1 ml) to 48 well plates already containing compound at 1000× final concentration in neat DMSO or 10% DMSO in RPMI1640 with 10% FBS. TNF (final concentration 100 ng/ml) is used as the stimulus. Cells incubated for approximately 20 hrs at 37° C., 5% CO2. Levels of IL-8 in the cell free supernatant are determined by sandwich ELISA, and inhibition relative to a control with DMPO but no compound is calculated.

For the molecule `Cc1c(F)cc(C(=O)NC2CC2)cc1-c1nc(NC(CO)CO)nc2c1ccc(=O)n2-c1c(F)cccc1F` [18(e), N-cyclopropyl-3-(8-(2,6-difluorophenyl)-2-{[2-hydroxy-1-(hydroxymethyl)ethyl]amino}-7-oxo-7,8-dihydropyrido[2,3-d]pyrimidin-4-yl)-5-fluoro-4-methylbenzamide], the melting point (in general, the temperature, or range, at which the solid turns liquid) is 214.2 to 217.5 °C.

In the case of `Cc1ccc(C(=O)NC2CC2)cc1-c1nc(NC2CC(C)(C)NC(C)(C)C2)nc2c1ccc(=O)n2-c1c(F)cccc1F` [21(c)], the melting point is 326.3 to 327.9 °C.

For `Cc1ccc(C(=O)NCc2ccccc2)cc1-c1nc(NCc2ncc[nH]2)nc2c1ccc(=O)n2-c1c(F)cccc1F` [116(c), 3-{8-(2,6-difluorophenyl)-2-[(1H-imidazol-2-ylmethyl)amino]-7-oxo-7,8-dihydropyrido[2,3-d]pyrimidin-4-yl}-4-methyl-N-(phenylmethyl)benzamide], the melting point was 185 to 190 °C (dec.).

`CCCNCCNc1nc(-c2cc(C(=O)NC3CC3)ccc2C)c2ccc(=O)n(-c3c(F)cccc3F)c2n1` [Example 24, N-cyclopropyl-3-(8-(2,6-difluorophenyl)-7-oxo-2-{[2-(propylamino)ethyl]amino}-7,8-dihydropyrido[2,3-d]pyrimidin-4-yl)-4-methylbenzamide] yielded a melting point of 120 to 134 °C. The inhibition of neutrophilia entry in data set [1] was “statistically nonsignificant inhibition”.

In the case of `Cc1ccc(C(=O)NC2CC2)cc1-c1nc(NCCN(C)C)nc2c1ccc(=O)n2-c1c(F)cccc1F` [Example 25], the melting point lay in the range of 214.7 to 217.5 °C. In addition, the inhibition of neutrophilia result in data set [1] is on record as “statistically nonsignificant inhibition”.

Turning to `Cc1ccc(NC(=O)c2ccsc2)cc1-c1nc(N2CCC(N)CC2)nc2c1ccc(=O)n2-c1c(F)cccc1F` [Example 32, N-{3-[2-(4-amino-1-piperidinyl)-8-(2,6-difluorophenyl)-7-oxo-7,8-dihydropyrido[2,3-d]pyrimidin-4-yl]-4-methylphenyl}-3-thiophenecarboxamide], the melting point fell in the range of 183.8 to 187.9 °C. Further, the inhibition of neutrophilia result in data set [1] is listed as “statistically nonsignificant inhibition”.

`CCCNC(=O)c1ccc(C)c(-c2nc(N(C)CCCN(C)C)nc3c2ccc(=O)n3-c2c(F)cccc2F)c1` [Example 104, 3-{8-(2,6-difluorophenyl)-2-[[3-(dimethylamino)propyl](methyl)amino]-7-oxo-7,8-dihydropyrido[2,3-d]pyrimidin-4-yl}-4-methyl-N-propylbenzamide] returned a melting point of 104 to 109 °C. Besides, the inhibition of neutrophilia result in data set [1] was “statistically significant inhibition”.

As to `CCCNC(=O)c1ccc(C)c(-c2nc(NCCN(C)C)nc3c2ccc(=O)n3-c2c(F)cccc2F)c1` [Example 105, 3-(8-(2,6-difluorophenyl)-2-{[2-(dimethylamino)ethyl]amino}-7-oxo-7,8-dihydropyrido[2,3-d]pyrimidin-4-yl)-4-methyl-N-propylbenzamide], the melting point fell in the range of 139 to 142 °C. Moreover, the inhibition of neutrophilia result in data set [1] is reported as “statistically significant inhibition”.

Regarding `CCCNC(=O)c1ccc(C)c(-c2nc(NCCN(C)C(=O)OC(C)(C)C)nc3c2ccc(=O)n3-c2c(F)cccc2F)c1` [Example 106, 1,1-dimethylethyl{2-[(8-(2,6-difluorophenyl)-4-{2-methyl-5-[(propylamino)carbonyl]phenyl}-7-oxo-7,8-dihydropyrido[2,3-d]pyrimidin-2-yl)amino]ethyl}methylcarbamate], the melting point is 115 to 118 °C.

With `Cc1ccc(N)cc1-c1nc(NC2CCNCC2)nc2c1ccc(=O)n2-c1c(F)cccc1F` [Example 111, 4-(5-amino-methylphenyl)-8-(2,6-difluorophenyl)-2-(4-piperidinylamino)-pyrido[2,3-d]pyrimidin-7(8H)-one], the IC50 (usually the concentration at which inhibition is half-maximal) in data set [2] was over 100 nM.

Turning to `CCN(CC)CCCNc1nc(-c2cc(C(=O)N[C@H](C)C(C)C)ccc2C)c2ccc(=O)n(-c3c(F)cccc3F)c2n1` [Example 130, 3-[2-{[3-(diethylamino)propyl]amino}-8-(2,6-difluorophenyl)-7-oxo-7,8-dihydropyrido[2,3-d]pyrimidin-4-yl]-N-[(1R)-1,2-dimethylpropyl]-4-methylbenzamide], the IC50 in data set [2] is over 10 nM. Besides, the inhibition of neutrophilia result in data set [1] is “statistically nonsignificant inhibition”.

With `CCN(CC)CCCNc1nc(-c2cc(C(=O)N[C@@H](C)C(C)C)ccc2C)c2ccc(=O)n(-c3c(F)cccc3F)c2n1` [Example 131, 3-[2-{[3-(diethylamino)propyl]amino}-8-(2,6-difluorophenyl)-7-oxo-7,8-dihydropyrido[2,3-d]pyrimidin-4-yl]-N-[(1S)-1,2-dimethylpropyl]-4-methylbenzamide], the IC50 in data set [2] was over 10 nM.

In data set [2], `CCN(CC)CCCNc1nc(-c2cccc(C(=O)Nc3ccc(F)cc3)c2C)c2ccc(=O)n(-c3c(F)cccc3F)c2n1` [Example 152, 3-[2-{[3-(diethylamino)propyl]amino}-8-(2,6-difluorophenyl)-7-oxo-7,8-dihydropyrido[2,3-d]pyrimidin-4-yl]-N-(4-fluorophenyl)-2-methylbenzamide] registered a 50% inhibitory concentration (IC50) of over 100 nM.

Turning to `CCCNC(=O)c1cccc(-c2nc(NCCCN(CC)CC)nc3c2ccc(=O)n3-c2c(F)cccc2F)c1C` [Example 153, 3-[2-{[3-(diethylamino)propyl]amino}-8-(2,6-difluorophenyl)-7-oxo-7,8-dihydropyrido[2,3-d]pyrimidin-4-yl]-2-methyl-N-propylbenzamide], the IC50 in data set [2] was over 100 nM.

`CCN(CC)CCCNc1nc(-c2cccc(C(=O)NCC(C)C)c2C)c2ccc(=O)n(-c3c(F)cccc3F)c2n1` [Example 154, 3-[2-{[3-(diethylamino)propyl]amino}-8-(2,6-difluorophenyl)-7-oxo-7,8-dihydropyrido[2,3-d]pyrimidin-4-yl]-2-methyl-N-(2-methylpropyl)benzamide] came in with an IC50 in data set [2] of over 100 nM.

`CCN(CC)CCCNc1nc(-c2cccc(C(=O)NC3CC3)c2C)c2ccc(=O)n(-c3c(F)cccc3F)c2n1` [Example 155, N-cyclopropyl-3-[2-{[3-(diethylamino)propyl]amino}-8-(2,6-difluorophenyl)-7-oxo-7,8-dihydropyrido[2,3-d]pyrimidin-4-yl]-2-methylbenzamide] displayed a 50% inhibitory concentration (IC50) in data set [2] of over 100 nM.

In data set [2], `CCN(CC)CCCNc1nc(-c2cccc(C(=O)NCC#N)c2C)c2ccc(=O)n(-c3c(F)cccc3F)c2n1` [Example 156, N-(cyanomethyl)-3-[2-{[3-(diethylamino)propyl]amino}-8-(2,6-difluorophenyl)-7-oxo-7,8-dihydropyrido[2,3-d]pyrimidin-4-yl]-2-methylbenzamide] displayed a 50% inhibitory concentration (IC50) of over 100 nM.

As for `Cc1ccc(C(=O)NCC(C)(C)C)cc1-c1nc(N2CCC(N3CCC(C)CC3)CC2)nc2c1ccc(=O)n2-c1c(F)cccc1F` [Example 171, 3-[8-(2,6-difluorophenyl)-2-(4-methyl-1,4′-bipiperidin-1′-yl)-7-oxo-7,8-dihydropyrido[2,3-d]pyrimidin-4-yl]-N-(2,2-dimethylpropyl)-4-methylbenzamide], the half-inhibitory concentration (IC50) in data set [2] is over 100 nM.

`CCN(CC)CCCNc1nc(-c2ccc(C(=O)NC(C)C)cc2)c2ccc(=O)n(-c3c(F)cccc3F)c2n1` [Example 189, 4-[2-{[3-(diethylamino)propyl]amino}-8-(2,6-difluorophenyl)-7-oxo-7,8-dihydropyrido[2,3-d]pyrimidin-4-yl]-N-(1-methylethyl)benzamide] showed an IC50 in data set [2] of over 100 nM.

For `CCN(CC)CCCNc1nc(-c2ccc(C(=O)NC3CC3)cc2)c2ccc(=O)n(-c3c(F)cccc3F)c2n1` [Example 190, N-cyclopropyl-4-[2-{[3-(diethylamino)propyl]amino}-8-(2,6-difluorophenyl)-7-oxo-7,8-dihydropyrido[2,3-d]pyrimidin-4-yl]benzamide], the IC50 in data set [2] is over 30 nM.

Molecule `CCN(CC)CCCNc1nc(-c2ccc(C(=O)Nc3ccc(F)cc3)cc2)c2ccc(=O)n(-c3c(F)cccc3F)c2n1` [Example 191, 4-[2-{[3-(diethylamino)propyl]amino}-8-(2,6-difluorophenyl)-7-oxo-7,8-dihydropyrido[2,3-d]pyrimidin-4-yl]-N-(4-fluorophenyl)benzamide] displayed a half-inhibitory concentration (IC50) in data set [2] of over 100 nM.

`CCN(CC)CCCNc1nc(-c2ccc(C(=O)Nc3nccs3)cc2)c2ccc(=O)n(-c3c(F)cccc3F)c2n1` [Example 192, 4-[2-{[3-(diethylamino)propyl]amino}-8-(2,6-difluorophenyl)-7-oxo-7,8-dihydropyrido[2,3-d]pyrimidin-4-yl]-N-1,3-thiazol-2-ylbenzamide] had a 50% inhibitory concentration (IC50) in data set [2] of over 100 nM.
